“Also recorded” adds a separate entry of the source.
B1: STI: Soybean trypsin inhibitor, a serine protease inhibitor capable of affecting the PAR-2 pathway (protein, UniProt P01070 25-205, looked up)
Trypsin inhibitor A: DFVLDNEGNPLENGGTYYILSDITAFGGIRAAPTGNERCPLTVVQSRNELDKGIGTIISSPYRIRFIAEGHPLSLKFDSFAVIMLCVGIPTEWSVVEDLPEGPAVKIGENKDAMDGWFRLERVSDDEFNNYKLVFCPQQAEDDKCGDIGISIDHDDGTRRLVVSKNKPLVVQFQKLDKESL

Key:
[1] = test system: melanocyte cultures plated under epidermal equivalents (EpiDerm); experiment: Pigmentation in equivalent-monolayer co-culture (no K-M contact); format: cell-based; settings: no keratinocyte-melanocyte contact
Experimental: (§1) Since PAR-2 is expressed in keratinocytes, but not in melanocytes, the possible requirement of keratinocyte-melanocyte contact was tested for the effect of Compound I and SLIGRL on melanosome phagocytosis by the keratinocytes. Primary melanocyte cultures (commercially available from Clonetics, San Diego) were plated under epidermal equivalents (EpiDerm, of MatTek, Ashland, Mass.) to create an equivalent-monolayer co-culture with no contact between keratinocytes and melanocytes. These co-cultures were compared to MelanoDerm equivalents (of MatTek), where melanocytes are present in the basal layer of the equivalent. Cultures were treated with Compound I, with the […], and with the PAR-2 agonist SLIGRL. As set forth in Table 3, keratinocytes are indicated by “K”, melanocytes are indicated by “M”, and lack of keratinocyte-melanocyte contact is indicated as “no K-M cont”. […] The same result was also observed with monolayer keratinocyte/melanocyte co-cultures having keratinocyte/melanocyte contact.

MelanoDerm equivalents = experiment: Pigmentation in melanocyte-containing epidermal equivalents; format: cell-based; settings: keratinocyte-melanocyte contact
Experimental: as §1

[2] = test system: monolayer keratinocyte/melanocyte co-cultures; experiment: Pigmentation in monolayer keratinocyte/melanocyte co-cultures (K-M contact); format: cell-based; settings: keratinocyte-melanocyte contact
Experimental: as §1

Human PMN cells = experiment: PMN chemotactic migration towards FMLP, Boyden chamber; format: cell-based; settings: cells counted at 115 microns; PMN pretreated with 5 or 0.5 mg/ml STI or 1 or 0.1 μM Compound I; buffer without FMLP: 19 at 80 μ
Experimental: Since ICAM-1 is involved in cell migration, cell migration towards a chemotactic peptide was studied in cells treated with Compound I and STI. Human PMN cells were placed in one side of a Boyden chamber, using standard techniques, and a chemotactic peptide (FMLP) was placed in the other chamber. Cells were allowed to migrate into the second chamber, and the number of migrating cells per field and distance of migration were calculated. The experiment was repeated with PMN cells pretreated with one of the following: 5 or 0.5 mg/ml STI, 1 or 0.1 μM Compound I, a buffer vehicle, and with and without chemotactic peptide. The number of cells per field that migrated the same distance as the untreated control was measured. Without the peptide and with no treatment, an average of 19 cells/field were migrating a distance of 80 microns. […] In other words, no cells (or less than 5/field) were identified at 115 microns. […] The ability to inhibit PMN migration is an important constituent of anti-inflammatory compounds.

[3] = test system: human primary keratinocytes; experiment: Fluorescent microsphere ingestion by human primary keratinocytes; format: cell-based; settings: treated two days; Compound I 1μM, SLIGRL 10μM; vs vehicle control; FIG. 1
Experimental: In order to study the role of the PAR-2 pathway in phagocytosis, several in vitro model systems were used. One system used contained primary human keratinocytes or a human keratinocyte cell line. In this and a number of following examples, cells were treated with test compounds for different amounts of time (from one hour to three days), and samples were then incubated with fluorescent microspheres for two hours. The beads ingested by the cells were photographed using fluorescence microscopy.
In this example, human primary keratinocytes or the human keratinocyte cell line HaCaT were used as in vitro model systems to study the effect of PAR-2 regulators on keratinocyte phagocytosis. The human primary keratinocytes used are commercially available from Clonetics (San Diego, Calif.). Cells were plated on chamber slides, at 2 chambers/slide and 60,000 cells/chamber. […]
Microspheres were also found around the cell, probably because they are non-specifically attached to extracellular-matrix components secreted by the cell. The quantity of the microspheres ingested was changed with the treatments.

Keratinocytes = experiment: Scanning electron microscopy of keratinocyte podia; format: cell-based; settings: treated two days; vs vehicle-treated controls; FIG. 8
Experimental: PAR-2 Effect on Phagocytosis and Migration Relates to Changes in Cell Shape Both phagocytosis and cell migration involve changes in cell shape. Therefore, the effect of the PAR-2 pathway reagents on cell podia were studied using scanning electron microscopy. Keratinocytes were treated with Compound I (identified as “SH00230”), SLIGRL and a buffer vehicle for two days, and then processed for SEM using standard techniques. […] In other words, the cells' “fingers” are shorter and malformed, so they cannot grasp objects as well as can the control cells. […] In other words, these cells have a greater probability for productive interaction with particles. Comparing these SEM pictures in FIG. 8, it is clear that SLIGRL-treated cells have a greater ability to interact with particles, while Compound I-treated cells are less suited for such a task.

[4] = test system: human skin, grafted on immuno-suppressed mice; experiment: Pigmentation of human skin grafted on immuno-suppressed mice; format: in vivo
Experimental: Human white facial skin samples were grafted on immuno-suppressed mice using standard techniques. About six weeks later grafts of the same individual, grafted on different mice, were treated with vehicle (ethanol: propylene glycol 70:30), or with 50 μM SLIGRL. Treatment was performed daily, 5 days/week. Darkening of the SLIGRL-treated grafts was visually observed during the last weeks of treatment (see FIG. 7A). On day 66, the animals were sacrificed and their skins were analyzed histologically.
The same experiment was repeated with black human breast skin samples grafted on immuno-suppressed mice. Grafts of the same individual were treated with vehicle (GDL liposomes) or with 1% STI. GDL liposomes were prepared as set forth in Niemiec, et al., with the exception of the following changes: the non-ionic liposomal formulation contained glycerol dilaurate (Emulsynt GDL, ISP Van Dyk)/cholesterol (Croda)/polyoxyethylene-10-stearyl ether (Brij76, ICI)/polyoxyethylene-9-lauryl ether, at ratio of 37.5:12.5:33.3:16.7. Hepes buffer, 0.05M, pH 7.4 (Gibco-BRL of Gaithersburg, Md.) was used as the aqueous phase in the preparation of the liposomes.

Molecule | level of pigmentation, Equivalent Monolayer Co-culture (no K-M cont.) [1] | level of pigmentation, Epidermal Equivalents (K-M cont.) (MelanoDerm equivalents) | level of pigmentation, Mono-Layer Co-Cultures (K-M cont.) [2] | Cells/Field (Human PMN cells) [cells/field] | quantity of ingested microspheres [3] | shape of cell podia (Keratinocytes) | visual appearance of grafts ([4]; white facial skin grafts, 50 μM SLIGRL topical daily, 5 days/week, last weeks of treatment, FIG. 7A) | melanin in F&M-stained sections ([4]; white facial skin grafts, 50 μM SLIGRL, day 66, FIG. 7B) | pigmentation in F&M-stained skin sections ([4]; black breast skin grafts, 1% STI in GDL liposomes, FIG. 7C)
CN[C@H](Cc1ccccc1)C(=O)N1CCCC1C(=O)N[C@@H](CCCNC(=N)N)C(=O)c1nc2ccccc2s1 (stereo partly drawn) [Compound I, (S)-N-Methyl-D-phenylalanyl-N-[4-[(aminoiminomethyl)amino]-1-(2-benzothiazolylcarbonyl)butyl]-L-prolinamide] | no effect | reduced; also recorded: lightening | lightening | <5 | dramatic reduction in the quantity of ingested microspheres | dramatically shorter podia | – | – | –
SLIGRL [reference compound] | no effect | induced pigmentation; also recorded: darkening | darkening | – | dramatic increase in the number of ingested microspheres | podia were increased in number, were somewhat longer, and were much thinner | Darkening | increase in melanin | –
B1 | – | – | – | <5 | – | – | – | – | reduce pigmentation in human skin
